Laboratory results as given in patent US20190367516A1 (Bayer Pharma Aktiengesellschaft, priority 2015, published 2019).
Like-named read-outs stand apart in the source and are kept apart here.

Target: T1, human M2 receptor (Homo sapiens, UniProt P08172)
T1 sequence (P08172 1-466): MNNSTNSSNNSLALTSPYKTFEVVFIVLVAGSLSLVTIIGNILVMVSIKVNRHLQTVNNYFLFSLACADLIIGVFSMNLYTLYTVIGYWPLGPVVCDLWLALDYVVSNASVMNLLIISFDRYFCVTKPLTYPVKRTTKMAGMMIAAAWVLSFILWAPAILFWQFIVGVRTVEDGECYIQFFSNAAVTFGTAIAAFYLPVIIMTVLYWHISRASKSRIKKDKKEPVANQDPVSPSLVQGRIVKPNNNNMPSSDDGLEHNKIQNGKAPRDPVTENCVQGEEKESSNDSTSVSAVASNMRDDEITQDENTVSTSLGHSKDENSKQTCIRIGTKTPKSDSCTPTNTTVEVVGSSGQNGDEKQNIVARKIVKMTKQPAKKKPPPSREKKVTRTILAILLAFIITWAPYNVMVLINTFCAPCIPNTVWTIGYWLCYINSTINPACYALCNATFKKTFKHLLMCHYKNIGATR
Conditions: for Emax: read-out: Efficiency, boosting of the acetylcholine effect at EC20 acetylcholine concentration; for Efficiency: boosting of the acetylcholine effect at EC20 acetylcholine concentration

[1] = Receptor activity EC50, allosteric potency at EC20 acetylcholine, M2-GIRK1/4 reporter cells, in some cases mean of two or more determinations
[2] = Receptor activity EC50, M2-GIRK1/4 activation test, acetylcholine at EC20, allosteric potency, in some cases mean values from two or more determinations

SMILES	EC50 [1] [µM]	Emax (M2-GIRK1/4 reporter cells) [%]	EC50 [2] [µM]	Efficiency (M2-GIRK1/4 reporter cells) [%]
CC[C@H](NC(=O)c1cn(-c2c(F)cc(F)cc2F)c2nc(N3CC(CNC(C)=O)CC3=O)ccc2c1=O)C(F)(F)F (stereo partly drawn) [Example 518, 7-[4-(Acetamidomethyl)-2-oxopyrrolidin-1-yl]-4-oxo-N-[(2S)-1,1,1-trifluorobutan-2-yl]-1-(2,4,6-trifluorophenyl)-1,4-dihydro-1,8-naphthyridine-3-carboxamide]	0.47	99.5		
CO[C@@H]1CN(c2ccc3c(=O)c(C(=O)N[C@@H](C4CC4)C(F)(F)F)cn(-c4c(F)cc(F)cc4F)c3n2)C[C@H]1O (single isomer, unassigned) [Example 584, N-[(1 S)-1-Cyclopropyl-2,2,2-trifluoroethyl]-7-[trans-3-hydroxy-4-methoxypyrrolidin-1-yl]-4-oxo-1-(2,4,6-trifluorophenyl)-1,4-dihydro-1,8-naphthyridine-3-carboxamide]	0.016			98.0
CC(C)(CC(F)(F)F)NC(=O)c1cn(-c2c(F)cc(F)cc2F)c2nc(N3CC(O)C4(CC4)C3)ccc2c1=O (single isomer, unassigned) [Example 571, 7-[7-Hydroxy-5-azaspiro[2.4]hept-5-yl]-4-oxo-N-(4,4,4-trifluoro-2-methylbutan-2-yl)-1-(2,4,6-trifluorophenyl)-1,4-dihydro-1,8-naphthyridine-3-carboxamide]	0.012			
C[C@@H](NC(=O)c1cn(-c2c(F)cc(F)cc2F)c2nc(N3C[C@@H](O)CC3=O)ccc2c1=O)C1CC1 [Example 480, N-[(1R)-1-Cyclopropylethyl]-7-[(4S)-4-hydroxy-2-oxopyrrolidin-1-yl]-4-oxo-1-(2,4,6-trifluorophenyl)-1,4-dihydro-1,8-naphthyridine-3-carboxamide]	0.046	100		
COC(=O)N1CCN(c2ccc3c(=O)c(C(=O)N[C@H](C4CC4)C(F)(F)F)cn(-c4c(F)cc(F)cc4F)c3n2)CC1 [Example 594, Methyl 4-[6-{[(1R)-1-cyclopropyl-2,2,2-trifluoroethyl]carbamoyl}-5-oxo-8-(2,4,6-trifluorophenyl)-5,8-dihydro-1,8-naphthyridin-2-yl]piperazine-1-carboxylate]	0.018	100		
O=C(N[C@H](C1CC1)C(F)(F)F)c1cn(-c2c(F)cccc2F)c2nc(N3CC4CC4(O)C3)ccc2c1=O (mixture of isomers) [Example 319, N-[(1R)-1-Cyclopropyl-2,2,2-trifluoroethyl]-1-(2,6-difluorophenyl)-7-[1-hydroxy-3-azabicyclo[3.1.0]hex-3-yl]-4-oxo-1,4-dihydro-1,8-naphthyridine-3-carboxamide]			0.025	
CC(C)(CC(F)(F)F)NC(=O)c1cn(-c2c(F)cc(F)cc2F)c2nc(N3C[C@@H](O)[C@@H](O)C3)ccc2c1=O [Example 612, 7-[(3R,4S)-3,4-Dihydroxypyrrolidin-1-yl]-4-oxo-N-(4,4,4-trifluoro-2-methylbutan-2-yl)-1-(2,4,6-trifluorophenyl)-1,4-dihydro-1,8-naphthyridine-3-carboxamide]	0.029	100		
O=C(NC12CCC(F)(CC1)CC2)c1cn(-c2ccc(F)cc2F)c2nc(N3CC[C@H](F)C3)ccc2c1=O [Example 63, 1-(2,4-Difluorophenyl)-N-(4-fluorobicyclo[2.2.2]oct-1-yl)-7-[(3S)-3-fluoropyrrolidin-1-yl]-4-oxo-1,4-dihydro-1,8-naphthyridine-3-carboxamide]			0.04	
CC(C)(C)NC(=O)c1cn(-c2c(F)cc(F)cc2F)c2nc(N3C[C@@H](O)CC3=O)ccc2c1=O [Example 469, N-tert-Butyl-7-[(4S)-4-hydroxy-2-oxopyrrolidin-1-yl]-4-oxo-1-(2,4,6-trifluorophenyl)-1,4-dihydro-1,8-naphthyridine-3-carboxamide]	0.02	100		
O=C(NC12CC(C1)C2)c1cn(-c2c(F)cc(F)cc2F)c2nc(N3CCNC3=O)ccc2c1=O [Example 653, N-(Bicyclo[1.1.1]pent-1-yl)-4-oxo-7-(2-oxoimidazolidin-1-yl)-1-(2,4,6-trifluorophenyl)-1,4-dihydro-1,8-naphthyridine-3-carboxamide]	0.089	86.5		

The next lines start with the values.

EC50 [1] [µM]	Emax (M2-GIRK1/4 reporter cells) [%]	EC50 [2] [µM]	Efficiency (M2-GIRK1/4 reporter cells) [%]	SMILES
		0.146		CC(NC(=O)c1cn(-c2ccc(F)cc2F)c2nc(N(C)CCF)ccc2c1=O)C(F)(F)F (racemic) [Example 105, rac-1-(2,4-Difluorophenyl)-7-[(2-fluoroethyl)(methyl)amino]-4-oxo-N-[1,1,1-trifluoropropan-2-yl]-1,4-dihydro-1,8-naphthyridine-3-carboxamide]
		0.038		CC[C@@H](NC(=O)c1cn(-c2ccc(F)cc2F)c2nc(N3CCC4CC4(O)C3)ccc2c1=O)C(F)(F)F (stereo partly drawn) [Example 354, 1-(2,4-Difluorophenyl)-7-[1-hydroxy-3-azabicyclo[4.1.0]hept-3-yl]-4-oxo-N-[(2R)-1,1,1-trifluorobutan-2-yl]-1,4-dihydro-1,8-naphthyridine-3-carboxamide]
		23.7		CC[C@@H](NC(=O)c1cn(-c2ccc(F)cc2F)c2nc(N3CCOC(C(F)F)C3)ccc2c1=O)C(F)(F)F (single isomer, unassigned) [Example 265]
		0.026		C[C@H](NC(=O)c1cn(-c2c(F)cc(F)cc2F)c2nc(N3CC4CC4(O)C3)ccc2c1=O)C(F)(F)F (single isomer, unassigned) [Example 317]
		0.081		C[C@@H](O)CNc1ccc2c(=O)c(C(=O)N[C@@H](C3CC3)C(F)(F)F)cn(-c3c(F)cc(F)cc3F)c2n1 [Example 378, N-[(1S)-1-Cyclopropyl-2,2,2-trifluoroethyl]-7-{[(2R)-2-hydroxypropyl]amino}-4-oxo-1-(2,4,6-trifluorophenyl)-1,4-dihydro-1,8-naphthyridine-3-carboxamide]
		0.068		Cc1cccc(C(NC(=O)c2cn(-c3ccc(F)cc3F)c3nc(N(C)C)ccc3c2=O)C(F)(F)F)c1 (racemic) [Example 138, rac-1-(2,4-Difluorophenyl)-7-(dimethylamino)-4-oxo-N-[2,2,2-trifluoro-1-(3-methylphenyl)ethyl]-1,4-dihydro-1,8-naphthyridine-3-carboxamide]
		0.039		CN(C)c1ccc2c(=O)c(C(=O)NC34CC5CC(CC(C)(C5)C3)C4)cn(-c3ccc(F)cc3F)c2n1 [Example 41, 1-(2,4-Difluorophenyl)-7-(dimethylamino)-N-(3-methyltricyclo[3.3.1.1^3,7]dec-1-yl)-4-oxo-1,4-dihydro-1,8-naphthyridine-3-carboxamide]
		0.743		CC[C@@H](NC(=O)c1cn(-c2ccc(F)cc2F)c2nc(N3CC(C)OC3=O)ccc2c1=O)C(F)(F)F (mixture of isomers) [Example 266, 1-(2,4-Difluorophenyl)-7-[5-methyl-2-oxo-1,3-oxazolidin-3-yl]-4-oxo-N-[(2R)-1,1,1-trifluorobutan-2-yl]-1,4-dihydro-1,8-naphthyridine-3-carboxamide]
0.008	99			O=C(NC(CC(F)(F)F)C(F)(F)F)c1cn(-c2c(F)cc(F)cc2F)c2nc(N3C[C@@H](O)[C@H](O)C3)ccc2c1=O (stereo partly drawn) [Example 545, 7-[(3R,4R)-3,4-Dihydroxypyrrolidin-1-yl]-N-[1,1,1,4,4,4-hexafluorobutan-2-yl]-4-oxo-1-(2,4,6-trifluorophenyl)-1,4-dihydro-1,8-naphthyridine-3-carboxamide]
0.022			100.0	CCC(NC(=O)c1cn(-c2ccc(F)cc2F)c2nc(N3C[C@@H](O)CC3=O)ccc2c1=O)C(F)(F)C(F)(F)F (single isomer, unassigned) [Example 558]
0.048	100			C[C@@H](COC(F)(F)F)NC(=O)c1cn(-c2c(F)cc(F)cc2Cl)c2nc(N3C[C@@H](O)CC3=O)ccc2c1=O [Example 421, 1-(2-Chloro-4,6-difluorophenyl)-7-[(4S)-4-hydroxy-2-oxopyrrolidin-1-yl]-4-oxo-N-[(2S)-1-(trifluoromethoxy)propan-2-yl]-1,4-dihydro-1,8-naphthyridine-3-carboxamide]
		0.041		CN(C)c1ccc2c(=O)c(C(=O)NC(C3CC3)C(F)(F)F)cn(-c3ccc(F)cc3F)c2n1 (racemic) [Example 148, rac-N-(1-Cyclopropyl-2,2,2-trifluoroethyl)-1-(2,4-difluorophenyl)-7-(dimethylamino)-4-oxo-1,4-dihydro-1,8-naphthyridine-3-carboxamide]
		0.505		O=C(NC(c1c(F)cccc1F)C(F)(F)F)c1cn(-c2ccc(F)cc2F)c2nc(N3CCCC(O)C3=O)ccc2c1=O (single isomer, unassigned) [Example 249, 1-(2,4-Difluorophenyl)-N-[1-(2,6-difluorophenyl)-2,2,2-trifluoroethyl]-7-[3-hydroxy-2-oxopiperidin-1-yl]-4-oxo-1,4-dihydro-1,8-naphthyridine-3-carboxamide]
		0.158		CN(C)c1ccc2c(=O)c(C(=O)NC3CC34CCCCC4)cn(-c3ccc(F)cc3Cl)c2n1 (stereo not shown) [Example 154, 1-(2-Chloro-4-fluorophenyl)-7-(dimethylamino)-4-oxo-N-(spiro[2.5]oct-1-yl)-1,4-dihydro-1,8-naphthyridine-3-carboxamide]
